Tested on: Renilla luciferase (R/L) expression
Assay: Evaluation of delivery efficiency by detection of protein expression level (R/L mRNA-LNP injected intradermally into mouse ear, luminescence of ear lysate)
Format: in vivo, ICR mice
Conditions: ionizable lipid:trehalose-based lipid:DOPE:cholesterol (or substitute):DMG-PEG 25:25:10:38.5:1.5
Procedure: An RNA platform in which a nucleic acid sequence encoding Renilla luciferase (R/L), which has an IRES element derived from encephalomyocarditis virus (EMCV) and is a known reporter gene, was inserted as a target sequence was constructed. The template DNA was designed and the nucleic acid molecule of the single-stranded RNA platform was constructed using an IVT procedure.
Lipid nanoparticles were prepared from 0.625 mg/mL of an RNA solution (50 mM sodium citrate buffer, 110 mM NaCl, pH=4.0) and a lipid-mixture solution (ethanol) using a laboratory mixer and emulsifier (NanoAssembir Spark, Precision NanoSystems) and subjected to solvent conversion with physiological saline using a filter tube for centrifugation (UFC5010, Amicon). […]
The experiment was performed according to the following procedure. […] R/L, which was actually tested, expression, and maintenance were detected at two points of time: after 6 hours and 24 hours.
Each mouse was anesthetized using a respiratory anesthetic, and a drug that satisfied the experimental conditions was injected into the mouse through an insulin syringe. […] Then, 20 μl of the mixture was transferred to a white 96-well plate, 100 μl of Renilla luciferase assay substrate from Promega Corporation was added thereto, and luminescence was measured to compare expression.

SMILES | usability as cholesterol substitute in lipid nanoparticles
CCCCOC(=O)CC[C@H](C)[C@H]1CC[C@H]2[C@@H]3CC[C@@H]4C[C@H](O)CC[C@]4(C)[C@H]3CC[C@]12C [Formula 4] | appropriate cholesterol substitutes
CCC(C)CCOC(=O)CC[C@H](C)[C@H]1CC[C@H]2[C@@H]3CC[C@@H]4C[C@H](O)CC[C@]4(C)[C@H]3CC[C@]12C (some centres unmarked) [Formula 5] | appropriate cholesterol substitutes

Source: patent publication US12414918B2, “Pharmaceutical composition of lipid nanoparticle for delivering nucleic acid drug containing trehalose derivative and novel structure-maintaining lipid compound” (SML BIOPHARM CO., LTD., priority 2021, dated 2025)
